Laboratory results reported in patent US9549911B2, “Ginger metabolites and uses thereof” (North Carolina A&T State University, priority 2012, dated 2017).

How the values were obtained:
HCT-116 cells [1] = experiment: TUNEL apoptosis assay (Part 2); type: cell-based, human; conditions: HCT-116, 20 or 40 μM
Procedure: HCT-116 and H1299 cells were seeded in 6-well plates at 1×10^5 cells/well and incubated at 37° C. in 5% CO2 incubator. After 24 hours, fresh media supplemented with DMSO (control), [6]-shogaol, M2, M6, or M13 metabolites (20 μM or 40 μM) were added to the wells. After 6 or 24 hours incubation at 37° C. in 5% CO2 incubator, cells were washed and pre-treated for 15 min at room temperature with a solution of 20 μg/ml proteinase K. Cells were then washed twice with phosphate buffer saline pH 7.4 (PBS) and fixed for 10 min at room temperature using 10% neutral formaldehyde solution. After 2 washes in ddH2O, cells were resuspended in 100 μL ddH2O and applied on silanized microscope slides. Slides were incubated overnight at 37° C., and washed twice with PBS. TUNEL assay was then carried out according to the manufacturer's protocol. Cells were observed under 400× power using a Zeiss microscope A1 (Thornwood, N.Y.). 10 fields per slide were evaluated, and TUNEL+ cells (with brown coloration in the nucleus) were expressed as a percentage of the total number of cells contained in a field.

A549 cells = experiment: Intracellular glutathione (GSH, GSH/GSSG) measurement; type: cell-based, human; conditions: A549, 10 μM
Procedure: The total GSH content was measured using a HT Glutathione Assay kit (Trevigen, Galthersburg, Md.). Briefly A549 cells were plated in 60×15 mm culture plates and were allowed to attach overnight at 37° C. Cells were treated with 10 μM M2 and incubated for 0, 2, 4, 8, or 24 hours. Cells were harvested and proteins were precipitated with 5% (w/v) metaphosphoric acid. Samples were then processed following the manufacturer's instructions. The measurement of the absorbance of 5-thio-2-nitrobenzoic acid (TNB) at 405 nm was used to quantify glutathione levels in each sample, which was then compared to the standard curve and corrected for protein concentration.
For measurement of oxidized glutathione (Glutathione Disulfide or GSSG), samples and GSSG standards were treated with 2M 4-vinylpyridine (1 μL/50 μL sample) at room temperature for one hour. 4-Vinylpyridine (Sigma Aldrich, St. Louis, Mo.) blocks free thiols present in the reaction, consequentially blocking the formation of new GSSG by GSH. The 2M solution was freshly prepared by diluting 4-vinylpyridine in ethanol in a ratio of approximately 1:3.6. After incubation, samples were processed using the Trevigen kit's protocol and absorbance was measured at 405 nm as described herein.
The quantity of reduced cellular glutathione (or GSH) is obtained by subtracting the oxidized samples values from the total glutathione values or: GSH(reduced)=GSH(total)−GSSG(oxidized). Ratios of reduced to oxidized glutathione are shown to further represent cellular redox status after treatment with 6S or M2.

HT-29 cells = experiment: Western blot analysis of apoptosis markers and p53 (Part 5); type: cell-based, human; conditions: for p53 expression (Western blot): HT-29 (p53 mutant), 24 hours, M2, 6S 10, 20 or 40 μM, 8S, M2′, 10S, M2″ 20 μM
Procedure: (§1) Cell lysates were prepared in ice-cold RIPA lysis buffer [25 mM Tris-HCl (pH 7.6), 150 mM NaCl, 1% NP-40, 1% sodium deoxycholate, 0.1% SDS, Thermo Fisher Scientific] supplemented with a protease inhibitor cocktail (AEBSF, aprotinin, bestatin, E-64, leupeptin and pepstatin A in DMSO with EDTA, Thermo Fisher Scientific). Protein content was measured by a Pierce BCA Assay Kit (Thermo Fisher Scientific). Protein contents of cell lysates (30 μg protein/lane) were resolved by SDS-PAGE. Proteins were then electro-transferred onto PVDF membranes and blots were blocked for one hour at room temperature in 1×TBS with 1% Casein (Bio-Rad Laboratories, Berkeley, Calif.). Blots were then incubated overnight at 4° C. with the desired primary antibody diluted in TBS with 0.5% Tween-20. Blots were then washed with TBS-Tween 20 and probed for 1 hour with the appropriate secondary antibody (1:1000). Protein bands were visualized with chemiluminescence using West Femto maximum detection substrate (Thermo Fisher Scientific). To confirm equal protein loading in each lane, immunoblots were stripped and re-probed for β-actin. Protein fold-induction was calculated by normalizing the intensity of the band of interest to β-actin first, and then to DMSO control lanes.

HCT-116 cells [2] = experiment: as above; type: cell-based, human; conditions: for p53 expression (Western blot): HCT-116 (p53 wild-type), 24 hours, M2, 6S 10, 20 or 40 μM, 8S, M2′, 10S, M2″ 20 μM
Procedure: as §1

[3] = system: human colon fibroblast cells CCD-18Co; experiment: in vitro; type: cell-based
Procedure: (§2) Growth inhibition of human cancer and normal cells. Cell growth inhibition was determined by a MTT colorimetric assay. Human colon cancer cells HCT-116, human lung cancer cells H-1299, human colon fibroblast cells CCD-18Co, and human lung fibroblast cells IMR-90 were plated in 96-well microtiter plates with 3000 cells/well and allowed to attach for 24 h at 37° C. […] After the cells were cultured for 48 h, the medium was aspirated and cells were treated with 200 μL fresh medium containing 2.41 mmol/L MTT. […] The reading reflected the number of viable cells and was expressed as a percentage of viable cells in the control. Both HCT-116 and H-1299 cells were cultured in McCoy's 5A medium. CCD-18Co and IMR-90 cells were cultured in Eagle's modified essential medium (EMEM). All of the above media were supplemented with 10% fetal bovine serum, 1% penicillin/streptomycin, and 1% glutamine, and the cells were kept in a 37° C. incubator with 95% humidity and 5% CO2.

[4] = system: human lung fibroblast cells IMR-90; experiment: in vitro; type: cell-based
Procedure: as §2

Row | Structure (SMILES) | induction of apoptosis (TUNEL) versus DMSO (HCT-116 cells [1]; 6 hours) | intracellular GSH levels (A549 cells; 2 hours) | GSH/GSSG ratio (A549 cells; 4 hours) | intracellular GSH levels (A549 cells; 8 hours) | GSH/GSSG ratio (A549 cells; 24 hours) | intracellular GSH levels compared to baseline (A549 cells; 24 hours) | p53 expression (Western blot) (HT-29 cells) | p53 expression (Western blot) (HCT-116 cells [2]) | IC50 [3] | IC50 [4] | also measured
1 | CCCCCC(CC(=O)CCc1ccc(O)c(OC)c1)SC[C@H](N)C(=O)O (some centres unmarked) [M2, 5-cysteinyl-[6]-shogaol] | higher levels of apoptosis | significantly depleted | significantly lower | significantly higher | significantly higher | significantly increased | dose-dependent up-regulation of p53 | dose-dependent up-regulation of p53 | 99.2 µM | 98.3 µM | induction of apoptosis (TUNEL) versus DMSO (HCT-116 cells [1]; 24 hours): Apoptosis was observed; Bcl-2 levels (Western blot, vs DMSO) (HT-29 cells; HT-29, 40 μM): ~0.1 fold; PUMA induction (Western blot, vs DMSO) (HT-29 cells; HT-29, 40 μM): ~17 fold; XIAP expression (Western blot, vs DMSO) (HT-29 cells; HT-29, 40 μM): ~0.3 fold; cleaved caspase 9 (Western blot, vs DMSO) (HT-29 cells; HT-29, 40 μM): ~4.6 fold; cytochrome c release (Western blot, vs DMSO) (HT-29 cells; HT-29, 40 μM): ~2.2 fold; Bcl-2 levels (Western blot, vs DMSO) (HCT-116 cells [2]; HCT-116, 40 μM): undetectable; PUMA induction (Western blot, vs DMSO) (HCT-116 cells [2]; HCT-116, 40 μM): ~17 fold; XIAP expression (Western blot, vs DMSO) (HCT-116 cells [2]; HCT-116, 40 μM): undetectable; cleaved caspase 9 (Western blot, vs DMSO) (HCT-116 cells [2]; HCT-116, 40 μM): ~4.6 fold; cytochrome c release (Western blot, vs DMSO) (HCT-116 cells [2]; HCT-116, 40 μM): ~2.2 fold
2 | CCCCC/C=C/C(=O)CCc1ccc(O)c(OC)c1 [[6]-shogaol, reference compound] | higher levels of apoptosis | significantly depleted | significantly lower | significantly lower | significantly higher | significantly increased | dose-dependent up-regulation of p53 | dose-dependent up-regulation of p53 | 43.9 µM | 36.6 µM | GSH/GSSG ratio (A549 cells; 2 hours): significantly lower
